Measurements taken from the supplement of paper PMC10307832.

Assays:
Experiment in all cases: relative viability (nuclei count vs DMSO), 5 days (fraction); higher = more cells survive
[1] = compound: C=C(c1ccc(C(=O)O)cc1)c1cc2c(cc1C)C(C)(C)CCC2(C)C [Bexarotene] + C[C@]1(O)C[C@@H](c2nc(-c3ccc4ccc(-c5ccccc5)nc4c3)c3c(N)nccn32)C1 [Linsitinib] (partner 1 µM)
How it was run: (§1)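 One day after seeding in 1536-well plates, lung cancer cell lines were dosed by pin tool. Dosing was either single-drug or a fixed anchor-drug dose plus five library-drug doses (not always all listed) in √10 steps. After 5 days, nuclei were stained in one fix-and-stain step and counted on 4× images, and relative viability is the nuclei count of treated wells over that of vehicle wells, given as the median of duplicate plates.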

[2] = compound: C=C(c1ccc(C(=O)O)cc1)c1cc2c(cc1C)C(C)(C)CCC2(C)C [Bexarotene] + Nc1nc2[nH]cc(CCc3ccc(C(=O)N[C@@H](CCC(=O)O)C(=O)O)cc3)c2c(=O)[nH]1 [Pemetrexed] (partner 0.2 µM)
How it was run: as §1

[3] = compound: C=C(c1ccc(C(=O)O)cc1)c1cc2c(cc1C)C(C)(C)CCC2(C)C [Bexarotene] + O=C(CCCCCCC(=O)Nc1ccccc1)NO [Vorinostat] (partner 1 µM)
How it was run: as §1

[4] = compound: C=C(c1ccc(C(=O)O)cc1)c1cc2c(cc1C)C(C)(C)CCC2(C)C [Bexarotene] + CC1(C)CCC(c2ccc(Cl)cc2)=C(CN2CCN(c3ccc(C(=O)NS(=O)(=O)c4ccc(N[C@H](CCN5CCOCC5)CSc5ccccc5)c(S(=O)(=O)C(F)(F)F)c4)cc3)CC2)C1 [Navitoclax] (partner 0.5 µM)
How it was run: as §1

Row | Cell Line | relative viability ([1]; first compound 0.08 µM) | relative viability ([1]; first compound 0.253 µM) | relative viability ([1]; first compound 0.8 µM) | relative viability ([1]; first compound 2.53 µM) | relative viability ([1]; first compound 8 µM) | relative viability ([2]; first compound 0.08 µM) | relative viability ([2]; first compound 0.253 µM) | relative viability ([2]; first compound 0.8 µM) | relative viability ([2]; first compound 2.53 µM) | relative viability ([2]; first compound 8 µM) | relative viability ([3]; first compound 0.08 µM) | relative viability ([3]; first compound 0.253 µM) | relative viability ([3]; first compound 0.8 µM) | relative viability ([3]; first compound 2.53 µM) | relative viability ([3]; first compound 8 µM) | relative viability ([4]; first compound 0.08 µM) | relative viability ([4]; first compound 0.253 µM) | relative viability ([4]; first compound 0.8 µM) | relative viability ([4]; first compound 2.53 µM) | relative viability ([4]; first compound 8 µM)
1 | NCI-H1651 | 1.12 | 0.934 | 1.02 | 1.08 | 0.984 | 0.709 | 0.487 | 0.61 | 0.617 | 0.622 | 0.693 | 0.604 | 0.62 | 0.602 | 0.608 | 1.1 | 1.09 | 1.11 | 1.22 | 0.925
2 | NCI-H1666 | 0.889 | 0.783 | 0.844 | 0.931 | 0.661 | 0.8 | 0.912 | 0.736 | 0.844 | 0.7 | 0.815 | 0.959 | 0.829 | 0.916 | 0.791 | 0.98 | 0.922 | 0.864 | 0.897 | 0.723
3 | NCI-H1734 | 0.906 | 0.857 | 0.81 | 0.794 | 0.806 | 0.438 | 0.419 | 0.454 | 0.361 | 0.363 | 0.779 | 0.834 | 0.808 | 0.65 | 0.657 | 0.804 | 0.877 | 0.795 | 0.781 | 0.815
4 | NCI-H1755 | 1.05 | 1.1 | 1.08 | 0.992 | 1.02 | 0.451 | 0.458 | 0.498 | 0.452 | 0.425 | 0.85 | 0.991 | 0.815 | 0.652 | 0.662 | 1.04 | 1.05 | 1.02 | 0.993 | 0.993
5 | NCI-H1793 | 1.08 | 0.959 | 1.03 | 0.914 | 0.897 | 0.972 | 0.828 | 0.79 | 0.845 | 0.852 | 0.666 | 0.784 | 0.611 | 0.604 | 0.601 | 0.351 | 0.556 | 0.332 | 0.35 | 0.464
6 | NCI-H1915 | 1.16 | 1.12 | 1.03 | 1.04 | 1.07 | 0.519 | 0.492 | 0.54 | 0.473 | 0.439 | 0.544 | 0.579 | 0.482 | 0.513 | 0.513 | 0.846 | 0.792 | 0.834 | 0.77 | 0.728
7 | NCI-H1944 | 1.5 | 1.36 | 1.4 | 1.41 | 1.19 | 0.822 | 0.758 | 0.857 | 0.724 | 0.75 | 0.74 | 0.683 | 0.669 | 0.675 | 0.532 | 1.03 | 0.97 | 0.945 | 0.972 | 0.986
8 | NCI-H1975 | 1.06 | 1.12 | 1.08 | 1.22 | 1.1 | 0.327 | 0.331 | 0.305 | 0.334 | 0.323 | 0.884 | 0.758 | 0.725 | 0.754 | 0.795 | 1.29 | 1.19 | 1.3 | 1.22 | 1.09
9 | NCI-H1993 | 0.718 | 0.665 | 0.608 | 0.656 | 0.774 | 0.714 | 0.611 | 0.537 | 0.534 | 0.514 | 0.851 | 0.691 | 0.783 | 0.716 | 0.672 | 1.11 | 1.03 | 0.878 | 0.924 | 0.841
10 | NCI-H2009 | 1.33 | 1.36 | 1.13 | 1.18 | 1.13 | 1.09 | 1.04 | 1.12 | 0.973 | 0.998 | 0.692 | 0.86 | 0.845 | 0.76 | 0.834 | 1.24 | 1.28 | 1.23 | 1.17 | 1.19
11 | NCI-H2023 | 0.785 | 0.911 | 0.735 | 0.683 | 0.625 | 0.283 | 0.251 | 0.202 | 0.202 | 0.196 | 0.644 | 0.941 | 0.619 | 0.57 | 0.528 | 0.991 | 0.993 | 0.921 | 0.851 | 0.729
12 | NCI-H2085 | 0.776 | 0.793 | 0.797 | 0.685 | 0.712 | 0.832 | 0.808 | 0.753 | 0.751 | 0.74 | 0.672 | 0.804 | 0.69 | 0.719 | 0.692 | 1.09 | 1.13 | 0.961 | 0.949 | 0.924
13 | NCI-H2087 | 1.01 | 0.963 | 0.89 | 0.896 | 0.827 | 0.681 | 0.743 | 0.696 | 0.652 | 0.549 | 1.07 | 0.765 | 0.642 | 1.09 | 0.841 | 1.11 | 0.944 | 1.1 | 0.848 | 0.759
14 | NCI-H2126 | 0.8 | 0.762 | 0.789 | 0.791 | 0.753 | 0.822 | 0.679 | 0.621 | 0.742 | 0.636 | 0.882 | 0.902 | 0.703 | 0.762 | 0.751 | 0.925 | 0.916 | 0.844 | 0.958 | 0.872
15 | NCI-H2228 | 0.905 | 0.818 | 0.586 | 0.656 | 0.749 | 0.36 | 0.358 | 0.365 | 0.212 | 0.376 | 0.784 | 0.691 | 0.787 | 0.665 | 0.887 | 0.822 | 0.71 | 0.455 | 0.931 | 0.721
16 | NCI-H2347 | 1.06 | 1.02 | 0.749 | 0.975 | 1.02 | 0.484 | 0.424 | 0.399 | 0.445 | 0.462 | 0.703 | 0.622 | 0.513 | 0.681 | 0.557 | 0.971 | 0.846 | 0.63 | 0.793 | 0.783
17 | NCI-H2405 | 1.1 | 0.946 | 0.695 | 0.973 | 0.912 | 1.25 | 1.09 | 0.939 | 0.977 | 1.07 | 1.06 | 1.01 | 0.839 | 0.755 | 0.951 | 0.999 | 0.814 | 0.753 | 0.926 | 0.786
18 | NCI-H3122 | 1.14 | 1.08 | 1.1 | 1.07 | 1.14 | 0.219 | 0.202 | 0.194 | 0.217 | 0.213 | 1.17 | 1 | 1.01 | 1.12 | 1.11 | 1.12 | 1.11 | 1.1 | 1.01 | 1.09
19 | PC-3 [JPC-3] | 0.98 | 1.03 | 0.829 | 0.882 | 0.827 | 1.07 | 1.05 | 1.05 | 0.541 | 1 | 0.963 | 0.639 | 0.737 | 0.417 | 0.599 | 0.86 | 0.904 | 0.754 | 0.797 | 0.693
20 | PC-14 | 0.99 | 1.06 | 0.935 | 1 | 0.934 | 0.127 | 0.144 | 0.145 | 0.145 | 0.16 | 0.882 | 0.844 | 0.643 | 0.741 | 0.636 | 1.12 | 1.11 | 0.948 | 0.841 | 0.809
21 | RERF-LC-KJ | 0.8 | 0.827 | 0.755 | 0.782 | 0.83 | 0.506 | 0.513 | 0.501 | 0.506 | 0.47 | 0.689 | 0.707 | 0.641 | 0.7 | 0.609 | 1.07 | 0.934 | 1.08 | 1 | 0.92
22 | SK-LU-1 | 1.22 | 1.12 |  | 0.93 | 1.23 | 1.03 | 1.03 |  | 0.944 | 0.923 | 0.924 | 0.866 |  | 0.734 | 0.672 | 1.1 | 0.845 |  | 0.645 | 1.09
23 | SK-MES-1 | 1.15 | 1.18 | 0.983 | 1.05 | 0.97 | 1.04 | 1.12 | 1.08 | 0.961 | 0.735 | 1.2 | 1.28 | 1.11 | 1.06 | 0.936 | 1.47 | 1.2 | 1.25 | 1.33 | 1.09
24 | SW 1573 | 0.777 | 0.608 | 0.681 | 0.754 | 0.536 | 0.911 | 0.814 | 0.897 | 0.751 | 0.847 | 0.918 | 0.645 | 1.11 | 0.635 | 0.746 | 1.07 | 0.777 | 0.731 | 0.735 | 0.598
25 | UMC-11 | 1.08 | 1.01 | 1.04 | 0.978 | 0.998 | 0.77 | 0.764 | 0.786 | 0.77 | 0.803 | 0.357 | 0.379 | 0.408 | 0.377 | 0.346 | 0.347 | 0.268 | 0.306 | 0.305 | 0.284
